These results are taken from US20100074886A1, “CCR2 ANTAGONISTS FOR TREATMENT OF FIBROSIS” (priority 2006, published 2010).

Assay [1] relates to fibrotic fibroblasts (UIP patients). Nature of the assay: Profibrotic gene expression (real time PCR) after 24 hrs stimulation of fibrotic fibroblasts. Format: cell-based, human. The following applies: for IL13Ra2 gene expression (FIG. 7B): fibroblasts, cell type not given; for CTGF gene expression (FIG. 5): fibrotic (UIP) fibroblasts; for aSMA expression (FIG. 2) / increase in aSMA expression / TGFb1 gene expression (FIG. 4): fibrotic fibroblasts; for increase in aSMA expression: vs unstimulated. An excerpt: (§1) Cell lines were provided by Dr Cory Hogaboam at the University of Michigan. All of the primary fibroblast lines were isolated as previously described (Hogaboam et al. 1999 J Immunol 163(4):2193-201). Pulmonary fibroblasts were isolated from lung biopsies taken from UIP patients (n=4) and these are referred to as “fibrotic fibroblasts”. Fibroblasts were also isolated from lung tissue taken during lung tumor resection (n=5) and these samples were confirmed to be non-fibrotic by histological analysis. These non-fibrotic tissue derived fibroblasts are referred to as “non-fibrotic fibroblasts”.
(§2) Human lung fibroblasts were plated into 24 well plates (Costar, Corning, N.Y.) at 100,000 cells/well and allowed to adhere for 8 hours. The cells were then washed with PBS and cultured overnight in serum free media (DMEM with 1-Glutamine, Pen/Strep). Cells were then stimulated for 24 hrs in the presence or absence of TGFb-1 (1 or 10 ng/mL), PDGF-AB (20 or 200 ng/mL) or CCL2 (1 or 10 ng/mL). TGFb1, PDGF-AB and CCL2 were purchased from R&D Systems. Supernatants were removed and RNA was subsequently isolated using RNeasy Plus Mini-Kits (QIAGEN, Valencia, Calif.) as per manufacturer's instructions and RNA was reverse transcribed into cDNA using TaqManâ Reverse Transcription Reagents (Applied Biosystems, Foster City, Calif.). Profibrotic gene expression was determined by real time PCR using the Taqmanâ Universal PCR Master Mix (Applied Biosystems) and pre-developed Taqmanâ Gene Expression Assays (Applied Biosystems) as per manufacture's instructions.
(§3) Quantitative gene expression was calculated using the comparative CT method, where CT values are determined as the threshold cycle number for which gene expression is first detected. Fold changes in gene expression for the genes of interest were first normalized to the housekeeping gene 18S, giving ACT values. Fold changes in expression between fibrotic and non-fibrotic fibroblasts were calculated as: ΔCT(non-fibrotic)−ΔCT(fibrotic)=ΔΔCT, where the non-fibrotic gene expression served as the calibrator. Fold changes in gene expression due to in vitro stimulation were calculated by ΔΔCT=ΔCT(unstimulated)−ΔCT(stimulated), where the unstimulated sample served as calibrator. The calculation 2-ΔΔCT then gives a relative value for final fold change when compared to calibrator.
In general terms: Real-time PCR tracks product formation cycle by cycle.

Assay [2] has as its system non-fibrotic fibroblasts. Nature of the assay: Profibrotic gene expression (real time PCR) after 24 hrs stimulation of non-fibrotic fibroblasts. Format: cell-based, human.
Excerpt: as §1, §2, §3

On to “PDGF: platelet-derived growth factor alpha/beta; purchased from R&D Systems, used as fibroblast stimulus”, for which, in assay [1] (UIP fibroblasts), the “IL13Ra1 gene expression (FIG. 7A)” value was “upregulated”. Further, in assay [1], the “IL13Ra2 gene expression (FIG. 7B)” value was “upregulated”, the “CTGF gene expression (FIG. 5)” value is “induced an increase”, the “aSMA expression (FIG. 2)” value is “modest increase” and the “increase in aSMA expression” value is listed as “less than 10 fold”. Also, the “aSMA expression (FIG. 2)” value in assay [2] is on record as “only in the fibrotic fibroblasts”.
For the substance “CCL2: CC-chemokine ligand 2, Monocyte Chemoattractant Protein 1; purchased from R&D Systems, used as fibroblast stimulus”, in assay [1] (UIP fibroblasts), the “IL13Ra1 gene expression (FIG. 7A)” value was “upregulated”, the “TGFbRII gene expression (FIG. 6B)” value is recorded as “somewhat greater increase in TGFbRII”, the “procollagen I gene expression (FIG. 3A)” value is given as “induces” and the “procollagen III gene expression (FIG. 3B)” value is “induces”. Besides, in assay [1], the “IL13Ra2 gene expression (FIG. 7B)” value is listed as “upregulated”, the “CTGF gene expression (FIG. 5)” value is “induced an increase”, the “TGFb1 gene expression (FIG. 4)” value is “enhances TGFb1 gene expression” and the “aSMA expression (FIG. 2)” value was “induced an increase”. In addition, the “increase in aSMA expression” value in assay [1] was “more than 10 fold”. The “aSMA expression (FIG. 2)” value in assay [2] is “only induced an increase in aSMA expression in fibrotic fibroblasts”.
For the substance “TGFb1: transforming growth factor beta-1; purchased from R&D Systems, used as fibroblast stimulus”, in assay [1] (UIP fibroblasts), the “IL13Ra1 gene expression (FIG. 7A)” value is “upregulated” and the “TGFbRI gene expression (FIG. 6A)” value is “greater effect on TGFbRI”. In assay [1], the “IL13Ra2 gene expression (FIG. 7B)” value is recorded as “upregulated”, the “CTGF gene expression (FIG. 5)” value is reported as “induced an increase”, the “TGFb1 gene expression (FIG. 4)” value is “increased TGFβ1” and the “aSMA expression (FIG. 2)” value was “induced aSMA”. In assay [2], the “CTGF gene expression (FIG. 5)” value is recorded as “induced an increase”, the “TGFb1 gene expression (FIG. 4)” value is given as “increased TGFβ1” and the “aSMA expression (FIG. 2)” value is “induced aSMA”.
